According to US20140357512A1, “HISTONE DEACETYLASE (HDAC) BIOMARKERS IN MULTIPLE MYELOMA” (priority 2013, published 2014):

Test system: human myeloma cell line MM.1S
Assay: SILAC acetylated-lysine peptide profiling, HDAC inhibitor vs DMSO (light/heavy ratio)
Format: cell-based
Text: An embodiment of the invention comprises utilizing the SILAC method in order to quantitate changes in protein expression between two or more populations of cells. The SILAC method is a technique based on mass spectrometry that detects differences in protein abundance among samples using non-radioactive isotopic labeling. The SILAC method is known in the art, and described in detail in Ong et al., “Stable Isotope Labeling by Amino Acids in Cell Culture, SILAC, as a Simple and Accurate Approach to Expression Proteomics”, Molecular & Cellular Proteomics, vol. 1, pp. 376-386 (2002), which is incorporated herein by reference in its entirety.
Briefly, the SILAC method involves growing two populations of cells in cell culture. The first population of cells is grown in growth media containing normal amino acids (“normal media”). The second population of cells is grown in media lacking a standard essential amino acid (such as lysine), but is then supplemented with a non-radioactive, isotopically labeled form of that essential amino acid (such as lysine labeled with ^13C atoms, rather than normal ^12C atoms), which is called “heavy media”. When the two populations of cells are each growing in the medium, they incorporate the amino acids into all of their proteins. The growth of cells maintained in the heavy media is no different from that in normal media. All peptides containing the heavy amino acids are heavier than their normal counterparts. The cells from each of the two populations of cells are lysed. The lysates from each of the two cell populations are then combined. The combined cell lysates are then analyzed by mass spectrometry. Pairs of chemically identical peptides of different stable isotope composition can be differentiated in a mass spectrometer due to their difference in mass. The ratio of peak intensities in the mass spectrum for such peptide pairs reflects the abundance ratio for the two proteins.
This example describes SILAC studies that were performed to compare the effects of three different HDAC inhibitors (Compound A, Compound B, and tubastatin A) to a control on a human multiple myeloma cell line. The HDAC inhibitors were also compared amongst themselves to determine differences in their effects.
A human myeloma cell line MM.1S was grown using either ^12C (light) or ^13C (heavy) lysine containing culture medium. The “heavy” cells were treated with DMSO as the control, and the “light” cells were treated with a single HDAC inhibitor at 37° C. for 6 hours. The heavy and light cells were lysed, and the lysates were mixed in 1:1 ratio and digested with the protease trypsin. The acetylated lysine containing peptides (due to the action of the HDAC inhibitor) in the digested peptide pool were captured by a non-specific anti-acetylated lysine antibody cocktail (the antibodies identify both light and heavy acetylated peptides), and subjected to mass spectrometry analysis in order to identify thousands of individual peptides.
Thousands of peptides were identified in pairs (^12C and ^13C) due to their known mass differences. The amino acid sequence and quantitative ratio (Light/Heavy) of a given peptide in two differentially treated cell lysates were then determined and annotated with their possible protein (gene) sources.
As stated above, three HDAC inhibitors (Compound A, Compound B, and Tubastatin A) were used. Thus, the SILAC method was performed three times, with a different HDAC inhibitor compared to a control each time. Accordingly, there are three pairs of quantitative data in the table below, i.e., Compound A:DMSO, Compound B:DMSO, and Tubastatin A:DMSO. A cut-off of 1.30 fold of change (increase or decrease) was then used to determine “changed” or “+” in the table, and any peptides with a fold of change less than 1.3 fold were determined to be “unchanged” or “0” in the table. Those peptides that were not identified were marked as “NA” in the table. […]

O=C(NO)c1cnc(NC2(c3cccc(F)c3)CCCCC2)nc1 [Compound B, 2-((1-(3-fluorophenyl)cyclohexyl)amino)-N-hydroxypyrimidine-5-carboxamide]
L/H ratio of acetylated peptide (ac)AEK(ac)FDCHYCR (SEQ ID NO: 725, four and a half LIM domains protein 1 isoform 5 [20], FHL1): 0.00 log 2
L/H ratio of acetylated peptide […](ac)VIPK (SEQ ID NO: 726, Endoplasmic reticulum resident protein 29 [48], ERP29): 0.00 log 2
L/H ratio of acetylated peptide TITMK(ac)QLLR (SEQ ID NO: 728, Branched-chain-amino-acid aminotransferase [281], BCAT2): 0.00 log 2
L/H ratio of acetylated peptide SK(ac)FVLVK (SEQ ID NO: 729, Endoplasmic reticulum resident protein 29 [54], ERP29): 0.00 log 2
L/H ratio of acetylated peptide TVGQLYK(ac)EQLAK (SEQ ID NO: 731, Isoform 1 of Myosin-9 [651], MYH9): 0.00 log 2
L/H ratio of acetylated peptide AAETCQEPK(ac)EFR (SEQ ID NO: 732, NADH dehydrogenase [ubiquinone] 1 alpha subcomplex assembly factor 4 [91], NDUFAF4): 0.00 log 2
L/H ratio of acetylated peptide ILMEHIHK(ac)LK (SEQ ID NO: 735, 60S ribosomal protein L19 [144], RPL19): 0.00 log 2
L/H ratio of acetylated peptide K(ac)FDQLLAEEK (SEQ ID NO: 737, Isoform 1 of Myosin-9 [1445], MYH9): 0.00 log 2
L/H ratio of acetylated peptide FVEFDMK(ac)PVCK (SEQ ID NO: 738, Isoform 2 of LIM and senescent cell antigen-like-containing domain protein 2 [326], LIMS2): 0.00 log 2
L/H ratio of acetylated peptide KAEAQIAAK(ac)NLDK (SEQ ID NO: 740, Aspartate aminotransferase mitochondrial [90], GOT2): 0.00 log 2
L/H ratio of acetylated peptide ALCTGEK(ac)GFGYK (SEQ ID NO: 744, Peptidyl-prolyl cis-trans isomerase F mitochondrial [86], PPIF): 0.00 log 2
L/H ratio of acetylated peptide IYK(ac)SDGIK (SEQ ID NO: 745, ADP/ATP translocase 2 [166], SLC25A5): 0.00 log 2
L/H ratio of acetylated peptide VPK(ac)TAENFR (SEQ ID NO: 748, Peptidyl-prolyl cis-trans isomerase D [43], PPID): 0.00 log 2
L/H ratio of acetylated peptide VNCLDK(ac)FWHK (SEQ ID NO: 749, Isoform 1 of LIM and SH3 domain protein 1 [23], LASP1): 0.00 log 2
L/H ratio of acetylated peptide KGEDFVK(ac)TLK (SEQ ID NO: 750, Malate dehydrogenase mitochondrial [335], MDH2): 0.00 log 2
L/H ratio of acetylated peptide EAEFTK(ac)SIAK (SEQ ID NO: 751, Signal peptidase complex subunit 2 [191], LOC653566, SPCS2): 0.00 log 2
L/H ratio of acetylated peptide FEDK(ac)TVAYTEQK (SEQ ID NO: 754, Protein disulfide-isomerase A3 [218], PDIA3): 0.00 log 2
L/H ratio of acetylated peptide ILEFFGLK(ac)K (SEQ ID NO: 756, Protein disulfide-isomerase [308], P4HB): 0.00 log 2
light to heavy ratio (L/H ratio) of acetylated peptide, log 2 scale (SFEEK(ac)VENLK (SEQ ID NO: 233), Isoform 1 of Tumor protein D52 [180], TPD52): 0.00
L/H ratio of acetylated peptide LFAK(ac)[…] (SEQ ID NO: 98) (SFPQ [319], log 2 scale, drug vs DMSO): 0.00
L/H ratio of acetylated peptide […](ac)MILIGR (SEQ ID NO: 100) (SFXN1 [86], log 2 scale, drug vs DMSO): 0.00
L/H ratio of acetylated peptide (SFYYK(ac)LR (SEQ ID NO: 395), Fatty acid synthase [2426], FASN): −0.74 log 2
L/H ratio of acetylated peptide […](ac)TAVAPIER (SEQ ID NO: 11) (SLC25A5 [23], log 2 scale, drug vs DMSO): −0.47
L/H ratio of acetylated peptide […](ac)DK (SEQ ID NO: 103) (SLC25A5 [92], log 2 scale, drug vs DMSO): 0.00
L/H ratio of acetylated peptide AFFK(ac)GAWSNVLR (SEQ ID NO: 102) (SLC25A5 [272], log 2 scale, drug vs DMSO): 0.00
L/H ratio of acetylated peptide […](ac)ANVAK (SEQ ID NO: 101) (SLC25A10 [173], log 2 scale, drug vs DMSO): 0.00
L/H ratio of acetylated peptide TWEK(ac)LLLAAR (SEQ ID NO: 104) (SNORA6, RPSAP15, SNORA62, RPSA [57], log 2 scale, drug vs DMSO): 0.00
L/H ratio of acetylated peptide (SQNTK(ac)[…] (SEQ ID NO: 458), Nucleoprotein TPR [713], TPR): −0.45 log 2
L/H ratio of acetylated peptide (SQSCETK(ac)LLDEK (SEQ ID NO: 410), Isoform 3 of Pro-interleukin-16 [277], IL16): −0.53 log 2
L/H ratio of acetylated peptide […](ac)YGAIR (SEQ ID NO: 107) (SRSF1 [38], log 2 scale, drug vs DMSO): 0.00
L/H ratio of acetylated peptide (ac)AEPSAPESK(ac)HK (SEQ ID NO: 108) (STT3B [10], log 2 scale, drug vs DMSO): 0.00
light to heavy ratio (L/H ratio) of acetylated peptide LQDFK(ac)SFLLK (SEQ ID NO: 582) (Serine hydroxymethyltransferase mitochondrial [469], gene SHMT2, inhibitor:DMSO): 0.00 log 2
